Source: patent publication US10265328B2, “C-19 steroids for specific therapeutic uses” (Procima GmbH, priority 2007, dated 2019)
Entries after “also recorded” stand apart in the source; their conditions may differ.

What was measured:
[1] = test system: skin; assay: topical application of a 4-OHT preparation to the skin over cellulite predilection areas; type: in vivo
Description: Not only in theory but also in practice the compounds of the present invention and in particular 4-OHT and its related analogous compounds are the ideal anabolic substances. […] This can be deduced from topical applications to the skin.
The border between the two layers is made up of collagen fibres. Strengthening this border by increasing its collagen content by stimulating the fibroblasts to produce more collagen leads to a marked improvement of the appearance of cellulite.
A topical formulation containing a compound according to the present invention such as 4-OHT or an analogous compound can increase the collagen content of the skin via stimulation of the fibroblasts. […] It is reasonable to assume that 4-OHT has solely anabolic effects. […] Apparently is 4-OHT unable to exert any androgenic effects such as hair growth or pimples.

[2] = molecular target: T1, aromatase (Homo sapiens, UniProt P11511); assay: aromatization of the compound
T1 sequence (P11511 1-503): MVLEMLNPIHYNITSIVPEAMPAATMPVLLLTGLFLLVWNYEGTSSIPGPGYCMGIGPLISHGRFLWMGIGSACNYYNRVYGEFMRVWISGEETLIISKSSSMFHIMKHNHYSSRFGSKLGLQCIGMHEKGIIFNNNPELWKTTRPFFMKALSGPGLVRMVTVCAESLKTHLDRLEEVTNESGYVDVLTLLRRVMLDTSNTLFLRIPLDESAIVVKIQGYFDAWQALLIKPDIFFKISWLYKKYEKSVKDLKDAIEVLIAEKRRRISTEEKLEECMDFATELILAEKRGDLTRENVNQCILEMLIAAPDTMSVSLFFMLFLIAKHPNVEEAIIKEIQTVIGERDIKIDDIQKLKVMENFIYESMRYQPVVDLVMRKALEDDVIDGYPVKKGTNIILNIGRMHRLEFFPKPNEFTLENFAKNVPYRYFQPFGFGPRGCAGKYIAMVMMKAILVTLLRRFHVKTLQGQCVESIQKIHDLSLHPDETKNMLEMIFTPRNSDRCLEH

[3] = molecular target: T2, androgen receptor (AR) (Homo sapiens, UniProt P10275); assay: binding affinity to the androgen receptor compared with DHT
T2 sequence (P10275 1-920): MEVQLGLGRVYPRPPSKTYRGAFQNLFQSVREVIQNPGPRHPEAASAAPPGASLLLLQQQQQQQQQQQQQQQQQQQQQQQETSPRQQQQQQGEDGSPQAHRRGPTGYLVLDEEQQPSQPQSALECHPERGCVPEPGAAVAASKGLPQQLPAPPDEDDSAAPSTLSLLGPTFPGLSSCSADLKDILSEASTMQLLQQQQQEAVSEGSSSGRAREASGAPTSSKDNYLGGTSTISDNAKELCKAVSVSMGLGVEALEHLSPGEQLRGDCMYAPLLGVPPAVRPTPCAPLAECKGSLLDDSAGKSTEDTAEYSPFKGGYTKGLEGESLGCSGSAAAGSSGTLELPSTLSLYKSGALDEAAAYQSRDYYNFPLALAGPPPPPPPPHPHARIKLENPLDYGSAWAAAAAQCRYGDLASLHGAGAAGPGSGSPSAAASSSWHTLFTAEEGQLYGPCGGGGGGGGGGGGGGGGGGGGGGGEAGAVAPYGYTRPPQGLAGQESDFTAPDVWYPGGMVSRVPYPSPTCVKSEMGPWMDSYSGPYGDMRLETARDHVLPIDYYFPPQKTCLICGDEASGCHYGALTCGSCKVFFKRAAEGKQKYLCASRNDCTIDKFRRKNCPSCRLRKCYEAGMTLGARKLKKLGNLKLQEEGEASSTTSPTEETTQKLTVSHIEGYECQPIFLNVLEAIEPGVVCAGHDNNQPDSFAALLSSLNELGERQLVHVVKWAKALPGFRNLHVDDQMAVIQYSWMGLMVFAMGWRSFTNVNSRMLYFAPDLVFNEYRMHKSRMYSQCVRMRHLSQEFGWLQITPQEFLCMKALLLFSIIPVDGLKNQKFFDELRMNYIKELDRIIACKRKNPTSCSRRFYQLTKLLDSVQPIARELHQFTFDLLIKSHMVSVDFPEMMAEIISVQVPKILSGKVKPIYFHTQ
Description: The compounds used according to the present invention preferably have a binding affinity to the androgen receptor (AR) higher than DHT; more preferably the binding affinity is high by having affinity specific to AR in a range of IC50≤500 nM, preferably IC50≤100 nM and more preferably IC50≤50 nM, wherein IC50 is defined as the concentration of the compound required to reduce specific binding of a reference compound, 5α-dihydrotestosterone (DHT), by 50%. The IC50-values can be determined by known methods using radioactively labelled DHT as reference compound, for example by a standard dextran-coated charcoal adsorption method as described by Raynaud et al., J. Steroid Biochem. 6, 615-622 (1975), using 1 nM reference concentrations of radiolabeled [^3H]-DHT, or by similar IC50 determination methods described in the literature. Because the concentration of AR in the target cell is very low, typically in the nanomolar range approximately, differences in binding constants to the order contemplated in the present invention are significant.

[4] = test system: 5α-reductase; assay: 5α-reduction of the compound
[5] = test system: breast cancer cells; assay: growth of breast cancer cells in culture; type: cell-based; details: certain breast cancer cells in culture
Description: A further promising concept is based on a comparative evaluation between DHT and the compounds of the present invention. […] This effect may readily hold also true for hormone independent cancer.

[6] = test system: variant of the human prostate cancer cell line LNCaP; details: cited from earlier work
[7] = test system: prostate cancer; details: 5 mg/day for 7 years vs placebo, men over 55 years, PSA less than 3.0 ng/ml; cited from earlier work
[8] = topical treatment over predilection areas of cellulite, within four weeks

## C[C@]12CC[C@H]3[C@@H](CCC4=C(O)C(=O)CC[C@@]43C)[C@@H]1CC[C@@H]2O [4-OHT, 4,17β-dihydroxyandrost-4-en-3-one]
[1]; after application to the skin
  androgenic effect on the skin (hair growth, pimples): no androgenic effect whatsoever could be observed
[1]; topical application to the skin
  concentration of collagen fibres in the skin: anabolically increases the concentration of collagen fibres; also recorded: drastic augmentation of collagen fibres
[1]; topical formulation, collagen content of the skin
  topical formulation compared with 4-OHA: superior than 4-OHA
[1]; [8]
  adipocytes entrapped in the mesh of collagen fibres: marked diminution and shrinkage of the adipocytes
  solidification of the skin: considerable solidification of the skin
[2]
  aromatization: escapes aromatization
[3]
  binding affinity to the AR relative to DHT: higher affinity to the AR than DHT
[4]
  5α-reduction: escapes aromatization or 5α-reduction
[5]
  growth of breast cancer cells in culture: even more effective

## C[C@]12CCC(=O)C[C@@H]1CC[C@@H]1[C@@H]2CC[C@]2(C)[C@@H](O)CC[C@@H]12 [DHT, dihydrotestosterone, reference compound]
[6]
  proliferation of LNCaP variant: inhibits the proliferation
[5]
  growth of breast cancer cells in culture: able to abolish the growth

## CC(C)(C)NC(=O)[C@H]1CC[C@H]2[C@@H]3CC[C@H]4NC(=O)C=C[C@]4(C)[C@H]3CC[C@]12C [finasteride]
[7]
  reduction of prostate cancers in the treatment arm: 25%
